According to patent US8791155B2, “Chroman derivatives” (Edison Pharmaceuticals, Inc., priority 2003, dated 2014):

Experiments:
Assay type in all cases: cell-based
FRDA fibroblasts = assay: FRDA fibroblast assay for protection from oxidative stress (BSO); conditions: Homo sapiens, preincubation 24 h before 1 mM BSO, read-out: EC50, reduced cell death in FRDA fibroblasts compared to untreated FRDA fibroblasts
Text: A cellular assay using FRDA-patient derived fibroblasts (as described by Jauslin, M L et al, Human Molecular Genetics 11; 3055-3063 (2002)); was used to determine the protective effects of the test compounds by analyzing survival of dermal fibroblasts taken from FRDA patients and unaffected normal donors under conditions of partial GSH depletion. Exposure of FRDA fibroblasts to BSO (L-buthionine (S,R)-sulfoximine) under conditions of restricted selenium causes depletion of cellular glutathione (GSH) and severe plasma membrane damage leading to cell death. Preincubation with the test compounds before the addition of BSO was used to determine if they could protect FRDA cells from BSO-mediated cell death.
Primary fibroblasts were derived from donors with a molecular diagnosis of FRDA and control donors with no mitochondria) disease. Lines F2, C2 and C3 were obtained from Coriell Cell Repositories (Camden, N.J., USA; catalog nos GM04078, GM 08402 and GM08399, respectively). All cell types were diagnosed at the molecular level for intronic GAA triplet repeat length in the frataxin gene using a PCR-based method, according to methods known in the art. […] The cells were seeded in 96-well plates at a density of 4000 cells per 100 pI in growth medium consisting of 25% (v/v) M199 EBS and 64% (v/v) MEM EBS without phenol red (Bioconcept, Allschwil, Switzerland) supplemented with 10% (v/v) fetal calf serum (PAA Laboratories, Linz, Austria), 100 U/ml penicillin, 100 μg/ml streptomycin (PAA Laboratories, Linz, Austria), 10 μg/ml insulin (Sigma, Buchs, Switzerland), 10 ng/ml EGF (Sigma, Buchs, Switzerland), 10 ng/ml bFGF (PreproTech, Rocky Hill, N.J., USA) and 2 mM glutamine (Sigma, Buchs, Switzerland). The cells were incubated in the presence of the various test compounds for 24 h before addition of 1 mM BSO (L-buthionine (S,R)-sulfoximine).
Cell viability was measured after the first signs of toxicity appeared in the BSO-treated controls (typically after 16-48 h). The cells were stained for 60 min at room temperature in PBS with 1.2 μm calceinAM and 4 pm ethidium homodimer (Live/Dead assay, Molecular Probes, Eugene, Oreg., USA). Fluorescence intensity was measured with a Gemini Spectramax XS spectrofluorimeter (Molecular Devices, Sunnyvale, Calif., USA) using excitation and emission wavelengths of 485 and 525 nm, respectively.

[1] = system: dopaminergic neuronal cell line; assay: High glutamate-induced oxidative stress assay (HGOS); conditions: Mus musculus; 30 mM glutamate, 16 hrs; read-out: EC50, protection against HGOS cell injury and cell death
Text: Protection against redox stress can be evaluated in cell culture using high glutamate induced oxidative stress (HGOS) in mouse dopaminergic cell lines. The cytotoxic effect of glutamate is not due to excitotoxicity, as this cell line is devoid of inotropic glutamate receptors. Rather, the glutamate-induced toxicity of dopaminergic cells is associated with an inhibition of cystine transport which subsequently leads to depletion of intracellular glutathione (GSH) levels (Murphy T. H., et al. Neuron 2, 1547-1558, 1989), activation of neuronal 12-lipoxygenase (Li, Y. et al., Neuron 19, 453-463, 1997), increased ROS production (Tan S. et al., J. Cell Biol. 141, 1423-1432, 1998) and elevated intracellular Cat^2+ (Li, Y. et al., see supra). Some molecules were measured for their ability to protect cells against glutamate-induced stress and the assay is detailed in Examples.
This procedure was used to induce high glutamate-induced oxidative stress (HGOS) in a dopaminergic neuronal cell line. Using this assay the potency and efficacy of test articles against HGOS neuronal cell injury and cell death was established in a high throughput manner.
• Dopaminergic neuronal cell lines • DMEM-No Glucose (Life Technologies Cat #11966-025) • L-glutamine (Life Technologies Cat #25030-081) • L-glutamic acid, monosodium salt (Sigma Cat #G5889) • D-glucose (Sigma Cat #G-6151) • 10×HBSS buffer (pH 7.4) (950 ml Pyrogen-free water, 2.44 g/L MgCl2.6H20, 3.73 g/L KCl, 59.58 g/L Hepes, 58.44 g/L NaCl, 1.36 g/L KH2PO4, 1.91 g/L CaCl2.2H2O and pH to […] with HCl) • Cell Tracker Green fluorescent dye (Molecular Probes, Cat #2925). Prepare a 5NM solution in pre-warmed HBSS just prior to use. • Sterile 96-well plates precoated with poly-D-lysine (Corning Catalog #3665) • 96-well deep well mother plate, DyNA Block 1000 (VWR Catalog #40002-008) Neuronal Cells
The cells were seeded into 96-well plates at a density of 2000 per well and left to grow for 72 hours in a 33° C. incubator with 5% CO2 in air atmosphere. The passage number of the cells for each assay experiment were no later than p11 in order to minimize experimental variation.
All compounds were dissolved in DMEM-No Glu containing 1 mM glucose, 30 mM glutamate and 1× Pen/Strep. DMEM-No Glu with 1 mM glucose and 1× P/S was used as the negative control, DMEM-No Glucose with 1 mM glucose, […] glutamate was used as a positive control and 100 NM Glutathione was added to the positive control as a standard. All of the procedures for this involving the making and dilution of compounds were performed using aseptic conditions and with minimal light.
The plates were removed from the incubator and examined under the microscope for morphological appearance and density. Using an aseptic technique and an 8-channel aspirator the media was carefully removed from the cells and replaced with 200 μI of 1×HBSS. This was done as quickly as possible to prevent the cells drying out. The plates were then placed in the humidified 37° C. incubators of the Biomek 2000 Side Loader. Four plates were washed at a time so as to minimize the time that the cells were sitting in 1×HBSS prior to addition of the compound test solution. Experimental Setup
The Beckman Biomek workstations were used to load the compounds and controls from the mother plates onto the cell plates that were prewashed with HBSS under sterile conditions. The plates were incubated in the upper HTS incubator at 37° C. in 5% CO2 for exactly 16 hrs. The following day, using the Beckman Biomek workstations, the plates were removed from the incubator. Using Cell Tracker Addition, the compounds were removed from the plates, washed once with […] of pre-warmed 1×HBSS and then 100 μL of 5 μM Cell Tracker Green was added to each well. The plates were incubated at 37° C. for 30 min to allow the dye to enter the cell and be cleaved by the esterases. […]

[2] = system: IL-1β release from a mouse microglial cell line; assay: Interleukin-1β microglial cell assay (LPS / IFN gamma); conditions: LPS (10 μg/ml) and IFN gamma (10 ng/ml), 24 hours, read-out: EC50, inhibition of IL-1 beta induction
Experimental: This assay measures the release of IL-1β from a mouse microglial cell line following an inflammatory challenge with LPS and interferon-gamma. The ability of test articles to inhibit microglial cell activation and IL-1β release is determined by co-incubation of the test article with the inflammatory challenge.
Mouse microglial cells were seeded in poly-D-lysine coated 96-well plates at a density of 10,000 cells/well and allowed to attach for 24 hours. Cells were stimulated by addition of LPS (10 μg/ml) and IFN gamma (10 ng/ml) in the presence or absence of test article. The cells were then incubated for 24 hours at 37° C., after which time the media was removed and used for cytokine determination as described below.
Viability of mouse microglial cells after exposure to the test article was determined using a fluorescent viability dye, Cell Tracker Green. Cell Tracker Green was used at a working concentration of 5 μM in 1×HBSS. Cells were washed once with HBSS (200 μl/well) and 100 μl Cell Tracker Green was added to each well. Cells were then incubated at 37° C. for 30 minutes, after which time the Cell Tracker was removed and the cells were washed once with HBSS (200 μl/well). 100 pl fresh HBSS was added to each well and the plate was read on a Fluoroskan plate reader using an excitation wavelength of 485 nm and an emission wavelength of 538 nm.
1. […]
• The Costar EIA Hi-binding plate was coated with capture antibody at 4 μg/ml. […] Each well was filled to the top, dispensed, and any remaining buffer was removed by inverting the plate and gently blotting against clean paper towels. • Non-specific binding sites were blocked by adding 300 μl of Blocking Buffer to each well, and after sealing incubating for at least 1 hour at room temperature. • After washing the plate was now ready for the samples. […] 100 μl of this Substrate Solution mixture was added to each well and the plate was incubated in the dark for 20 minutes at room temperature. • 50 μl of Stop Solution was added to each well, mixing was ensured by gently tapping. • Each plate was read with the Spectramax once at 450 nm. […]

EC50 [2] [µM]	Structure (SMILES)	EC50 (FRDA fibroblasts) [µM]	EC50 [1] [µM]
–	Cc1c(C)c2c(c(CSC3CCCC3)c1O)CCC(C)(C)O2 [5-Cyclopentylsulfanylmethyl-2,2,7,8-tetramethyl-chroman-6-ol]	0.01 to 6	< 5
≤ 20	Cc1cc(C)nc(SCc2c(O)c(C)c(C)c3c2CCC(C)(C)O3)n1 [5-(4,6-Dimethyl-pyrimidin-2-ylsulfanylmethyl)-2,2,7,8-tetramethyl-chroman-6-ol]	–	< 5
–	Cc1c(C)c2c(c(CSCC(C)C(=O)N3CCCC3C(=O)O)c1O)CCC(C)(CCCC(C)CCCC(C)CCCC(C)C)O2 (centres unmarked) [1-{3-[6-Hydroxy-2,7,8-trimethyl-2-(4,8,12-trimethyl-tridecyl)-chroman-5-ylmethylsulfanyl]-2-methyl-propionyl}-pyrrolidine-2-carboxylic acid]	0.01 to 6	< 5
–	CCCCCCSCc1c(O)c(C)c(C)c2c1CCC(C)(C)O2 [5-Hexylsulfanylmethyl-2,2,7,8-tetramethyl-chroman-6-ol]	0.01 to 6	< 5
